Measurements reported in patent publication US20060154243A1 (priority 2003, published 2006).

Legend:
Format in all cases: binding, human
[1] = tested on: serum 1a (individual 1, early serum)
[2] = tested on: serum 1b (individual 1, late serum)
serum 2 (individual 2) = tested on: serum 2 (individual 2)
serum 6 (individual 6) = tested on: serum 6 (individual 6)
serum 37 (individual 37) = tested on: serum 37 (individual 37)
serum 62 (individual 62) = tested on: serum 62 (individual 62)
serum London = tested on: serum London
serum SARS-yellow = tested on: serum SARS-yellow
serum SARS-green = tested on: serum SARS-green
[3] = tested on: control serum LUMC (pooled serum of ten healthy hospital workers)
[4] = tested on: control serum Blood-bank (commercial negative donor pooled serum)

Sequence	Binding of serum 1a to linear peptides of Orf14 of SARS-CoV TOR2 [1]	Binding of serum 1b to linear peptides of Orf14 of SARS-CoV TOR2 [2]	Binding of serum 2 to linear peptides of Orf14 of SARS-CoV TOR2 (serum 2 (individual 2))	Binding of serum 6 to linear peptides of Orf14 of SARS-CoV TOR2 (serum 6 (individual 6))	Binding of serum 37 to linear peptides of Orf14 of SARS-CoV TOR2 (serum 37 (individual 37))	Binding of serum 62 to linear peptides of Orf14 of SARS-CoV TOR2 (serum 62 (individual 62))	Binding of serum London to linear peptides of Orf14 of SARS-CoV TOR2 (serum London)	Binding of serum SARS-yellow to linear peptides of Orf14 of SARS-CoV TOR2 (serum SARS-yellow)	Binding of serum SARS-green to linear peptides of Orf14 of SARS-CoV TOR2 (serum SARS-green)	Control serum LUMC linear peptides [3]	Control serum LUMC looped peptides [3]	Control Serum Blood-Bank Looped peptides [4]	Control serum Blood-bank linear peptides [4]
EWLAEVVKLPSRYCC	0.8	0.6	0.7	0.6	1.0	0.7	1.0	0.3	0.6	0.6	0.6	0.7	0.7
LLAPHHVVAVIQEIQ	0.5	0.5	0.5	0.5	0.6	0.5	0.5	0.5	0.3	0.6	0.8	0.8	0.4
LEWLAEVVKLPSRYC	0.6	0.3	0.4	0.4	0.7	0.4	0.5	0.2	0.1	0.4	0.7	0.8	0.4
AVIQEIQLLAAVGEI	2.1	2.4	1.7	2.0	1.7	2.1	1.7	2.3	2.5	1.4	0.5	0.5	1.8
EIQLLAAVGEILLLE	0.6	0.5	0.5	0.4	0.6	0.4	0.4	0.5	0.3	0.8	0.7	0.7	0.4
LLLEWLAEVVKLPSR	0.5	0.4	0.4	0.6	0.7	0.4	0.6	0.2	0.3	0.5	0.5	0.7	0.7
VGEILLLEWLAEVVK	0.5	0.4	0.4	0.5	0.6	0.4	0.5	0.4	0.2	0.6	0.8	0.7	0.5
QREAEAAVKPLLAPH	0.4	0.3	0.4	0.5	0.4	0.3	0.4	0.2	0.3	0.4	0.7	0.7	0.4
HHVVAVIQEIQLLAA	0.4	0.4	0.4	0.4	0.5	0.3	0.4	0.4	0.2	0.4	0.4	0.5	0.4
AVGEILLLEWLAEVV	0.6	0.5	0.5	0.5	0.7	0.6	0.6	0.5	0.3	0.8	0.8	0.8	0.5
LLEWLAEVVKLPSRY	0.5	0.4	0.3	0.5	0.5	0.4	0.4	0.3	0.1	0.4	0.6	0.6	0.5
